Source: patent US20160051514A1, “METHODS FOR TREATMENT OF CARDIOMYOPATHY” (THE BRIGHAM AND WOMEN'S HOSPITAL, INC., priority 2013, published 2016)
Entries after “also recorded” stand apart in the source; their conditions may differ.

Legend:
[1] = tested on: zebrafish ventricular myocytes expressing 2057del2 plakoglobin; assay: INa and IK1 current densities by whole-cell voltage-clamp in zebrafish ventricular myocytes; format: cell-based, zebrafish (Danio rerio); conditions: for Effect on reduced INa and IK1 current densities (summary statements): myocytes expressing 2057del2 plakoglobin, after exposure
Text: (§1) Zebrafish ventricular myocyte isolation and culture: Zebrafish (Danio rerio) were bred and maintained at 28′C with 14 hr exposure to light and 10 hr to dark (day/night cycle) according to IACUC-approved protocols. Hearts were extracted from anesthetized fish at 21-56 days post-fertilization(dpf) using micro-dissecting tweezers (Roboz Surgical Instruments), washed vigorously in culture medium (M199, primocin, HEPES, L-glutamine, 10% fetal bovine serum) and placed in fresh medium. Ventricles were separated at the atrio-ventricular junction, pooled in a tube containing enzyme solution (HBSS without calcium/magnesium, Trypsin, PCN/Streptomycin, HEPES) at 37° C. and agitated in a thermomixer at 1000-1200 RPM. Dissociated cells were collected every 10 min from supernatants and transferred to tubes containing culture medium and 10% fetal bovine srum to halt trypsinization. Cells were then pelleted by centrifugation, resuspended in fresh culture medium, and seeded on sterile cover slips coated with laminin (20 μg/ml)^11 at 28° C. in a 5% CO2 incubator. After 36 hr, culture medium was changed and unattached cells were removed.
INa and INa activation and inactivation were measured by whole-cell voltage-clamp according to standard protocols.^14,15 Cells were held at a membrane potential of −80 mV after which pulses between -120 and +50 mV were applied in 5 mV steps each with a duration of 250 ms. Inactivation was measured from membrane potentials between −120 mV and +50 mV at maximal activation.^14,15 In view of the small cell size (cell capacitance of 6.7±2.6pF; n=47) it was not necessary to reduce extracellular [Nal. Access resistance of the patch electrodes was <7 MΩ Measurements showing incomplete control of membrane potential were eliminated from analysis.^14,15
(§2) The inward rectifier current IK1 was measured using the protocol described by Dobrev.^16,17 Ramp clamps of 1400 ms duration were applied between −120 and +20 mV. After each clamp, external solution containing Ba^2+(1 mM) was applied via a large pore pipette placed adjacent to the clamped cell. IK1 was defined as the total current minus the Ba^2+-insensitive current. ^16 Subtraction of the two currents was performed using a MatLab™ script.
as §1, with “culture:” for “culture: Zebrafish (Danio rerio) were bred and maintained at 28′C with 14 hr exposure to light and 10 hr to dark (day/night cycle) according to IACUC-approved protocols.”, “3-4 or 5-7 weeks post-fertilization” for “21-56 days post-fertilization(dpf)”, “(calcium/magnesium free-HBSS containing trypsin, penicillin/streptomycin,” for “(HBSS without calcium/magnesium, Trypsin, PCN/Streptomycin,”, “serum” for “srum”, “μg/ml)” for “μg/ml)^11”, “28.5°” for “28°”
INa activation and inactivation were measured by whole-cell voltage-clamp according to standard protocols (32,33). Cells were held at a membrane potential of −80 mV after which pulses between −120 and +50 mV were applied in 5 mV steps each with a duration of 250 ms. Inactivation was measured from membrane potentials between −120 mV and +50 mV at maximal activation (26,33). In view of the small size of zebrafish myocytes (cell capacitance of 6.7±2.6pF; n=47) it was not necessary to reduce extracellular [Na+] to achieve voltage control; extracellular [Na+] was reduced to 50 mM in studies of neonatal rat ventricular myocytes Access resistance of the patch electrodes was <7 MΩ. Measurements showing incomplete control of membrane potential were eliminated from analysis. […]

[2] = tested on: neonatal rat ventricular myocytes expressing 2057del2 plakoglobin; assay: INa and IK1 current density in neonatal rat ventricular myocytes; format: cell-based
Experimental: INa activation and inactivation were measured by whole-cell voltage-clamp according to standard protocols (32,33). Cells were held at a membrane potential of −80 mV after which pulses between −120 and +50 mV were applied in 5 mV steps each with a duration of 250 ms. Inactivation was measured from membrane potentials between −120 mV and +50 mV at maximal activation (26,33). In view of the small size of zebrafish myocytes (cell capacitance of 6.7±2.6pF; n=47) it was not necessary to reduce extracellular [Na+] to achieve voltage control; extracellular [Na+] was reduced to 50 mM in studies of neonatal rat ventricular myocytes Access resistance of the patch electrodes was <7 MΩ. Measurements showing incomplete control of membrane potential were eliminated from analysis. The chemical composition of the external and pipette solutions is described in supplemental information.
as §2, with “Dobrev et al. and Nemtsas et al. (34,35).” for “Dobrev.^16,17”, “Ba2+(1” for “Ba^2+(1”, “Ba2+-insensitive current (33).” for “Ba^2+-insensitive current. ^16”, “MatLab” for “MatLab™”, “script. […]” for “script.”

[3] = 3-4 weeks post-fertilization, 2057del2 plakoglobin + SB2
[4] = 3-4 weeks post-fertilization, Control + SB2

Cn1cc(C2=C(c3ccc(Cl)cc3Cl)C(=O)NC2=O)c2ccccc21 [SB216763]
IK1: current density at −100 mV [1, 3]: −15 pA/pF | IK1: slope between −90 and −15 mV [1, 3]: −21 pA/pF*100 mV | INa: peak current density [1, 3]: −163 pA/pF | IK1: current density at −100 mV [1, 4]: −18 pA/pF | IK1: slope between −90 and −15 mV [1, 4]: −27 pA/pF*100 mV | INa: peak current density [1, 4]: −230 pA/pF | INa: peak current density ([1]; 7-8 weeks post-fertilization, 2057del2 plakoglobin + SB2): −172 pA/pF | INa: peak current density ([1]; 7-8 weeks post-fertilization, Control + SB2): −168 pA/pF | Effect on INa and IK1 current densities in cells expressing 2057del2 plakoglobin ([1]; early exposure of embryos): marked normalization of these currents; also recorded: almost completely normalized these currents | Effect on INa or IK1 current densities in control myocytes ([1]; early exposure of embryos): had no effect | Effect on reduced INa and IK1 current densities, short-term exposure of isolated cells ([1]; isolated myocytes from transgenic fish treated in culture for 36 hr): reversed reductions in INa and IK1 current densities | Effect on reduced INa and IK1 current densities (summary statements) [1]: rapidly normalized | Effect on reduced INa and IK1 current densities (summary statements) ([1]; listed as SB2168763): rapid, near total recovery | Reduced INa and IK1 current densities in cells expressing mutant plakoglobin [2]: normalized the reduced current densities
